Earlier results on 88 sequences are cited in article PMC10017685 (Nature Communications, 2023).

One series relates to human erythrocytes. More on the design: method as in DBAASP. The conditions noted are these: cited from earlier work.
As to IAGKIAKIAGKIAKIAGKIAK [DBAASP_14998], the “Class (dedicated toxicity dataset used for toxicity classifier evaluation)” value (“Class” for short) was 0.
For the sequence VKRWKKWRWKWKKWV [DBAASP_8775], the “Class” value was 0.
As to GLLKKIKWLL [DBAASP_7430], the “Class” value was 0.

Staying with this series, now noted: toxicity class label 1 or 0, meaning of the labels not given; DBAASP HC50 data, human erythrocytes; ref DBAASP; cited from earlier work.
For the sequence VRRFPYWYPFLRR [DBAASP_14264], the “Class” value was 0.
Turning to ALHKTMLKKLGTMAL [DBAASP_10090], the “Class” value was 0.
RWFRIQLQIRRWRNRR [DBAASP_8807]: the “Class” value is 0.
In the case of WKKIWSKIKKLLK [DBAASP_7155], the “Class” value is 0.
As to HFLGTLKNLAKKIL [DBAASP_5019], the “Class” value is listed as 0.
On to GLNALKKVFKGIHEAIKLINNHVQ [DBAASP_6924], for which the “Class” value is 0.
As for GLNALKKFFQGIHEAIKLINNHVQ [DBAASP_6934], the “Class” value is 0.
With GLLGLLGSVVSHVVPAIVGHF [DBAASP_2298], the “Class” value is reported as 1.
As to SKVWRHWRRFWHRAHRLH [DBAASP_9101], the “Class” value is listed as 0.
On to FLKGIVGKLGKLF [DBAASP_9110], for which the “Class” value was 0.
For the sequence FIGMIPGLIGGLISAIK [DBAASP_9867], the “Class” value is 1.
Consider GLLKRIKTL [DBAASP_13873], for which the “Class” value is recorded as 1.
For SKVWRHWRRFWHRAHRKK [DBAASP_8105], the “Class” value is 0.
In the case of WLRRIKAWLRRKRK [DBAASP_10627], the “Class” value is 0.
For the sequence GFKDLLKGAAKALKKTVLF [DBAASP_4908], the “Class” value is 0.
Consider FWGKLWEGVKNAI [DBAASP_3480], for which the “Class” value was 0.
In the case of VKKFAWWWPFLKK [DBAASP_11304], the “Class” value is 0.
With HFLGTLVNLAKKIK [DBAASP_5026], the “Class” value was 0.
Regarding GLLGKLLKIAAKVGKKLL [DBAASP_4927], the “Class” value is 1.
For the sequence GMATKAGTALGKVAKAVIGAAL [DBAASP_2285], the “Class” value is listed as 0.
Regarding GVLKRIKTLV [DBAASP_8624], the “Class” value is 0.
On to GLNALKKVFQGIHEAIKLINKHVQ [DBAASP_6926], for which the “Class” value is 0.
For the sequence FLSLIPHIVSGVAALANHL [DBAASP_12391], the “Class” value is recorded as 0.
Regarding FLSLIPKAISAISALANHF [DBAASP_12627], the “Class” value is recorded as 0.
For VKRWKKFWRKWKKWW [DBAASP_8774], the “Class” value was 0.
Consider FWGFLGKLAMKAVPSLIGGNKK [DBAASP_8440], for which the “Class” value is reported as 0.
Regarding GLNALKKVFQGIHEAIKLINNHVK [DBAASP_6927], the “Class” value was 0.
Regarding GWKSVFRKAKKVGKTVGGLALDHYL [DBAASP_995], the “Class” value was 0.
As to AKRHHGYKRKFH [DBAASP_732], the “Class” value is recorded as 0.
Regarding GIWKTIKSMGKVFAGKILQNL [DBAASP_699], the “Class” value is 0.
On to FWSTLLSIGKSLL [DBAASP_18163], for which the “Class” value is listed as 1.
Regarding FLPILASLAAKFGPKLFSLVTKKS [DBAASP_4418], the “Class” value is 0.
As to RQYMRQIEQALRYGYRISRR [DBAASP_14411], the “Class” value is listed as 0.
On to SAVWRHWRRFWLRKHRKH [DBAASP_9988], for which the “Class” value is 0.
With FIGALLRPALKLLAGK [DBAASP_5719], the “Class” value was 0.
As for “GIGGALLSFGKSALKGLAKGLAEHF [DBAASP_12131]”, the “Class” value is recorded as 0.
FFFLSRIF [DBAASP_3232]: the “Class” value is reported as 0.
Regarding KLGFENFLVKALKTVMHVPTSPLL [DBAASP_5711], the “Class” value is recorded as 0.
On to GWKKWFNRAKKVGKTVGGLAVDHYL [DBAASP_996], for which the “Class” value was 0.
As to FLSAITSLLGKLL [DBAASP_4212], the “Class” value is listed as 0.
For the sequence FFHHIFRGIVHVGKKIHRLVKG [DBAASP_9984], the “Class” value is listed as 0.
For FLSLALAALPKFLCLVFKKC [DBAASP_1468], the “Class” value is listed as 1.
Regarding FLKGIKGMLGKLL [DBAASP_9112], the “Class” value is 0.
In the case of FFPGIIKVAGAILPTAICAITKRC [DBAASP_10252], the “Class” value is 0.
FLRFIGSVIHGIGHLVHHIGVAL [DBAASP_4193]: the “Class” value is listed as 0.
On to WRRRYRRWRRRRRWRRRPRR [DBAASP_10396], for which the “Class” value is on record as 0.
As for GVWSTILGGLKKFAKGGLDAIVNPK [DBAASP_5716], the “Class” value was 0.
Turning to ALWKTLLKKVLKAAA [DBAASP_7356], the “Class” value is given as 1.
Take GIWDTIKSMGKVFAGAILQNL [DBAASP_700]: the “Class” value is reported as 1.
Regarding KWKVFKKIEKMARNIRNKIVK [DBAASP_11864], the “Class” value was 0.
For GFMSKVANFAKKFAKGGVNAIMNQK [DBAASP_5718], the “Class” value is reported as 0.
With FPVTWPTKWLKG [DBAASP_9721], the “Class” value was 0.
As to CVKVKVKVGSGVKVKVKVC [DBAASP_347], the “Class” value is 0.
Take VKRWKKWWRKLKKSV [DBAASP_8773]: the “Class” value is on record as 0.
With GIWKTIKSMGKVFAGAIKQNL [DBAASP_705], the “Class” value was 0.
As to GILKTIKSIASKLKRKAK [DBAASP_5476], the “Class” value is reported as 0.
Take FLPKWALKWAAK [DBAASP_16468]: the “Class” value was 0.
Take GWLDVAKKIGKAAFNVAKNFL [DBAASP_10137]: the “Class” value is reported as 0.
As for FLSLIPKIATGIAALAKHL [DBAASP_10833], the “Class” value is listed as 1.
For the sequence FLPFVGNLLKGLL [DBAASP_1881], the “Class” value was 0.
Take WWWLRRRW [DBAASP_10634]: the “Class” value is 0.
Turning to GLLKRIKNLL [DBAASP_3146], the “Class” value is 0.
For the sequence FLQHIIGALGHLF [DBAASP_10244], the “Class” value is 0.
Take FPVTWKWWKWWKG [DBAASP_7114]: the “Class” value was 0.
For the sequence “GLWSKIKKAAKTAGKAALGFVNKMV [DBAASP_14234]”, the “Class” value is on record as 0.
For FPLTWLKWWKWKK [DBAASP_17184], the “Class” value is 0.
For the sequence IKKWWSKIKKLLK [DBAASP_7156], the “Class” value is 0.
Take KRIVQRIKKWLR [DBAASP_6827]: the “Class” value is 0.
Consider FFHHIFRGIVHVGKKIHRLVTG [DBAASP_9986], for which the “Class” value is listed as 0.
Consider GVVDILKGAAKDLAGHLATKVMNKL [DBAASP_4357], for which the “Class” value is 0.
Consider SKVGRHLRRFLHRAHRKL [DBAASP_7664], for which the “Class” value is reported as 0.
As for GLFDVIKKLLKKIGGL [DBAASP_8593], the “Class” value was 1.
Consider FLPAIAGLAAKFLPKIFCAITKKC [DBAASP_13908], for which the “Class” value is listed as 1.
FFGWLIKGAIHAGKAIHGLIHRRRH [DBAASP_3173]: the “Class” value is on record as 1.
As for HFLGKLVNLAKKIL [DBAASP_5018], the “Class” value is recorded as 0.
Take FLSLIPKIISAISALINHF [DBAASP_12629]: the “Class” value was 1.
For GWKKWLRKGAKHLGQAAIK [DBAASP_1434], the “Class” value is reported as 0.
As for KWCVYAYVKVKGVLVKYKKCW [DBAASP_2027], the “Class” value is given as 0.
For GLLDTLKGAAKNVVGSLASKVMEKL [DBAASP_4394], the “Class” value is 0.
On to FFPIIAGMAAKLIPSLFCKITKKC [DBAASP_4209], for which the “Class” value is 1.
Regarding KWKVFKKAEKMIRNIRNKIVK [DBAASP_11863], the “Class” value was 0.
Turning to VQWRIRVAVIRK [DBAASP_7680], the “Class” value is 0.
With VRRFAWWWAFLRR [DBAASP_5137], the “Class” value was 0.
Consider VCKRWKKWKRKWKKWCV [DBAASP_16449], for which the “Class” value is 0.
Take FLWALFKVASK [DBAASP_646]: the “Class” value is 0.
